The source of these data is patent US9278925B2, “Substituted 3-(biphenyl-3-yl)-4-hydroxy-8-methoxy-1-azaspiro[4.5]dec-3-en-2-one” (BAYER INTELLECTUAL PROPERTY GMBH, priority 2011, dated 2016).

The conditions of data set [1]: reference substances with known distribution coefficients; cited from earlier work.
Data set [2] in a line: Membrane affinity logMA (MA-Transil). Format: physicochemical. Particulars: buffer pH 7.4. As to the method:
Assays for Determining Membrane Affinity logMA and Protein Binding to Human Serum Albumin (HSA):
Determination of membrane affinity and protein binding to human serum albumin (HSA) was carried out via Transil technology (literature: A. Loidl-Stahlhofen, A. Eckert, T. Hartmann, M. Schöttner J Pharm Sci 90, 599-606 (2001)). Transil® (commercially available from Sovicell in Leipzig, Germany) are glass beads (diameter 10-12 μm) coated with a double-layer membrane of phosphatidylcholine (MA-Transil) or covalently attached human serum albumin (HSA-Transil).
To determine the logMA and the protein binding constant to HSA, the commercially available TRANSIL Intestinal Absorption & HSA Binding Combined Assay Kit was used. This is a 96-well microtitre plate (96 well-MTP) which is filled with Transil and can be used to determine MA-Transil and HSA-Transil binding of in each case eight active compounds. For each active compound, the Transil plate provides a row of 12 wells. Two wells serve as reference and are only filled with buffer pH 7.4. Five further wells contain MA-Transil in various increasing concentrations, the five remaining wells contain HSA-Transil in various increasing concentrations.
To determine binding of an active compound to Transil, the supernatant of the wells with Transil was quantified against the reference solution without Transil via HPLC-MS coupling (HPLC-MS=high performance liquid chromatography/mass spectrometry).
This is how the individual steps of the assay were carried out:
From the internal substance store, the active compounds were delivered in a 96-well MTP. This plate is referred to as mother plate. Each well contained 30 μl of a 10 mmol solution of active compound in DMSO (dimethyl sulphoxide). Two wells at the start (well A1) and at the end of the plate (well H12) were filled with 30 μl of a 10 mmol solution of warfarin in DMSO. Warfarin, whose membrane affinity and binding to HSA is known, serves to check whether the measurement is correct. The mother plate was used to prepare a daughter plate with a 1 to 4000 dilution with a mixture of buffer pH 7.4 and DMSO in a ratio of 1+1. The active compound concentration of each well was 2.5 μmol/liter, the volume of each well was 400 μl.
Using a Hamilton pipetting robot Microlab STAR, the 96 active compounds from the daughter plate were divided onto 12 Transil plates in total. From each well of the daughter plate, 12 times 20 μl were removed. The concentration of each well of the Transil plate was 0.25 μmol/liter, which corresponds to a dilution of 1 to 10. The DMSO content was 5%.
The filled Transil plates were each resuspended for two minutes, then allowed to stand at room temperature for at least two minutes and then centrifuged at 600 rotations per minute for five minutes. The pipetting robot was then used to remove 20 μl of supernatant from each well of the Transil plate and to transfer these to a separate microtitre plate. Here, the supernatants of in each case four Transil plates were pooled in a microtitre plate, so that at the end there were three pooled microtitre plates with in each case 80 μl of solution and an active compound concentration of 62.5 nM per well.
Prior to quantification of the active compounds by HPLC-MS, an optimization has to be carried out for each active compound where by way of a single injection daughter ion and optimum electrical voltages are determined. To this end, the pipetting robot prepared a dilution of the mother plate of 1 to 10 000 000 in an acetonitrile/water mixture in a ratio of 8+2 in a separate microtitre plate. This microtitre plate was measured by HPLC-MS using the software Discovery Quant Optimize from AB Sciex. The three pooled microtitre plates were measured by HPLC-MS using the software Discovery Quant Analyze from AB Sciex. […]

Data set [3] in a line: Plasma protein binding by equilibrium dialysis. The format is in vitro ADME. The protocol: The binding of test substances to plasma proteins is determined by equilibrium dialysis by means of the Ht-dialysis apparatus (96-well) made of Teflon and a semipermeable membrane (regenerated cellulose, MWCO 12-14K). This separates 150 μl each of a plasma side and a buffer side (50 mM phosphate buffer). The test substance is added in 2 concentrations (usually 3 and 0.3 μM) to the plasma side and binds to plasma proteins. The unbound fraction of the test substance passes through the membrane and is distributed on either side until equilibrium is established (after approx. 6-8 h at 37° C.). The substance concentration on the buffer side and the plasma side is determined by LC-MS analysis. For this, both sides are brought by dilution with buffer or plasma to the same matrix (10% plasma) and then precipitated with methanol. The free (unbound) fraction (fu) is calculated from the quotient of the buffer and plasma concentration. Stability tests and recovery tests are run concurrently as controls. In addition, the substance in buffer is dialysed against buffer, to check the nonspecific binding to apparatus and membrane and establishment of equilibrium. Because during incubation the osmotic pressure of the plasma proteins leads to dilution of the plasma (volume shift), this possible error is determined by weighing blank plasma samples and is included in the calculation of fu. Establishment of equilibrium and plasma stability should have a value not lower than 80% and the recovery should be at least 30%. A free fraction of <1% is regarded as high, between 1 and 10% as moderate and >10% as low plasma protein binding.
Background: In equilibrium dialysis only unbound substance equilibrates across the membrane.

For data set [4], the target named is human ACC1 (Homo sapiens, UniProt Q13085). The experiment in a line: Human ACC1 enzyme assay (ADP-Glo). Format: biochemical. Particulars: individual measurement (measurement no./preparation no. in table); read-out: ACC 1 IC50. As to the method: (§1) Typical concentrations were in the range of 1.75 μl.
A general note: In ADP-Glo the light output rises with the ADP produced.

In data set [5] the test system is human ACC1. In words: Human ACC1 enzyme assay (ADP-Glo). Format: biochemical. To be noted: for Ratio IC50s ACC2/ACC1 (respective measurement): pairwise, same dilution series. As to the method:
as §1

Data set [6] addresses human serum albumin (HSA) (Homo sapiens (Human), UniProt P02768). The experiment in a line: Protein binding to human serum albumin (HSA-Transil). To be noted: buffer pH 7.4. The protocol: Assays for Determining Membrane Affinity logMA and Protein Binding to Human Serum Albumin (HSA): Determination of membrane affinity and protein binding to human serum albumin (HSA) was carried out via Transil technology (literature: A. Loidl-Stahlhofen, A. Eckert, T. Hartmann, M. […] Pharm Sci 90, 599-606 (2001)). Transil® (commercially available from Sovicell in Leipzig, Germany) are glass beads (diameter 10-12 μm) coated with a double-layer membrane of phosphatidylcholine (MA-Transil) or covalently attached human serum albumin (HSA-Transil). To determine the logMA and the protein binding constant to HSA, the commercially available TRANSIL Intestinal Absorption & HSA Binding Combined Assay Kit was used. This is a 96-well microtitre plate (96 well-MTP) which is filled with Transil and can be used to determine MA-Transil and HSA-Transil binding of in each case eight active compounds. […] Two wells serve as reference and are only filled with buffer pH 7.4. Five further wells contain MA-Transil in various increasing concentrations, the five remaining wells contain HSA-Transil in various increasing concentrations. To determine binding of an active compound to Transil, the supernatant of the wells with Transil was quantified against the reference solution without Transil via HPLC-MS coupling (HPLC-MS=high performance liquid chromatography/mass spectrometry). This is how the individual steps of the assay were carried out: From the internal substance store, the active compounds were delivered in a 96-well MTP. This plate is referred to as mother plate. […] Warfarin, whose membrane affinity and binding to HSA is known, serves to check whether the measurement is correct. […] Using a Hamilton pipetting robot Microlab STAR, the 96 active compounds from the daughter plate were divided onto 12 Transil plates in total. From each well of the daughter plate, 12 times 20 μl were removed. The concentration of each well of the Transil plate was 0.25 μmol/liter, which corresponds to a dilution of 1 to 10. […] The filled Transil plates were each resuspended for two minutes, then allowed to stand at room temperature for at least two minutes and then centrifuged at 600 rotations per minute for five minutes. The pipetting robot was then used to remove 20 μl of supernatant from each well of the Transil plate and to transfer these to a separate microtitre plate. […] Prior to quantification of the active compounds by HPLC-MS, an optimization has to be carried out for each active compound where by way of a single injection daughter ion and optimum electrical voltages are determined. […] This microtitre plate was measured by HPLC-MS using the software Discovery Quant Optimize from AB Sciex. The three pooled microtitre plates were measured by HPLC-MS using the software Discovery Quant Analyze from AB Sciex. • Sciex Triple Quad 5500 mass spectrometer (from AB Sciex) • PAL Autosampler DLW Option Software: Analyst 1.4 (from AB Sciex) • Discovery Quant Optimize (from AB Sciex) • Discovery Quant Analyze (from AB Sciex) Optimization: […] Column: Poroshell 120 SB-C18 2.7 μm 3×30 mm Injection volume: 2 μl Flow rate: 1 ml/min: […] Evaluation of the HPLC peaks was carried out using Discovery Quant Analyze. The results (logMA and binding constant to HSA Kd) were calculated using an Excel workbook provided by Sovicell.

Where [7] appears, read: human plasma, read-out: fu [%] (human).
Setting [8] is: mouse plasma, read-out: fu [%] (mouse).

Each structure is given as a SMILES string. Several values for one entry are separate records, joined by “and”; a condition that tells them apart may be missing. Identical values can stand only once. Like-named read-outs stand apart in the source and are kept apart here.

Sequence of human serum albumin (HSA) (P02768 25-609): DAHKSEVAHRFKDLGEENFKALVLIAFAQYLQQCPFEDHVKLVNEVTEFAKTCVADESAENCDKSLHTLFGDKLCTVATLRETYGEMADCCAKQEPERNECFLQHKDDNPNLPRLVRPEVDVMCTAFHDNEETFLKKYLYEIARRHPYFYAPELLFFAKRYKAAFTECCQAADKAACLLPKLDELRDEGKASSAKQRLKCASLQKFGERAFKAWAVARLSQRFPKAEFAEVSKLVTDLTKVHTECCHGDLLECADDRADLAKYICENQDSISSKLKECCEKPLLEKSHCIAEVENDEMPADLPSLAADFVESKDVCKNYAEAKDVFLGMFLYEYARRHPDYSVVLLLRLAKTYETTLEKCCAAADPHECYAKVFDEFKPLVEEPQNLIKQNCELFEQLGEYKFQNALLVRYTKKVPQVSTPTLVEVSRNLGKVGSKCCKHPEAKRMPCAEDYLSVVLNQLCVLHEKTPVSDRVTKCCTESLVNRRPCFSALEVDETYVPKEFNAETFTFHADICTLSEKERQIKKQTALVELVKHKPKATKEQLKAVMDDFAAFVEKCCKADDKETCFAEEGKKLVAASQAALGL

One may read the log P as a log measure of how a compound divides between an organic and an aqueous phase. With `c1ccc(-c2cccc(-c3ccccc3)n2)cc1` [2,6-diphenylpyridine], the “log P” value in data set [1] is given as 4.9.

Consider `Clc1ccc(C(c2ccc(Cl)cc2)C(Cl)(Cl)Cl)cc1` [DDT], for which the “log P” value in data set [1] is listed as 6.2.

Broadly, the IC50 is the concentration needed to halve the response being measured. A word on the Kd: it is a measure of binding affinity in units of concentration. The low end stands for higher affinity, the high end for lower affinity. In the case of `Cc1ccc(-c2ccc(Cl)cc2)cc1C1=C(O)[C@]2(CC[C@H](C(F)(F)F)CC2)NC1=O` [V.1-b, (5s,8s)-3-(4′-Chloro-4-methylbiphenyl-3-yl)-4-hydroxy-8-(trifluoromethyl)-1-azaspiro[4.5]dec-3-en-2-one], in data set [2], the logMA turned out to be 2.38. In addition, the fraction unbound in data set [3] (setting [7]) is 0.0007. For the same compound, in data set [3] (setting [8]), the fraction unbound was 0.0241. Also, at human ACC1 [4], the IC50 was 109 nM and 111 nM. For the same compound, in the data set with human ACC1 [5], the “Selectivity ACC1 vs. ACC2 (mean of the individual measurements ± standard deviation)” value was 9.8 ± 1.4; the “Ratio IC50s ACC2/ACC1 (respective measurement)” value is 11.2 and 8.4. The Kd in data set [6] was determined as 3070 nM.

Compound `Cc1ccc(-c2ccc(Cl)c(F)c2)cc1C1=C(O)[C@]2(CC[C@H](C(F)(F)F)CC2)NC1=O` [V.2-b, (5s,8s)-3-(4′-Chloro-3′-fluoro-4-methylbiphenyl-3-yl)-4-hydroxy-8-(trifluoromethyl)-1-azaspiro[4.5]dec-3-en-2-one] had a logMA in data set [2] of 2.55. In data set [3] (setting [7]), the fraction unbound was 0.0005. In addition, the fraction unbound in data set [3] (setting [8]) amounted to 0.019. Moreover, in the data set on human ACC1 [5], the “Selectivity ACC1 vs. ACC2 (mean of the individual measurements ± standard deviation)” value was 9.4 ± 0.8; the “Ratio IC50s ACC2/ACC1 (respective measurement)” value is 8.6 and 10.3.

Take `COC(=O)c1ccccc1` [methyl benzoate]: the “log P” value in data set [1] is reported as 2.1.
